Here are results for one compound from US12447193B2, “Compositions and methods for prevention and treatment of infections” (The University of Memphis Research Foundation, priority 2019, dated 2025).

This test deals with S. aureus (UAMS-1). The test is described as follows: Osteomyelitis model in New Zealand White rabbits. It is filed as in vivo. As to conditions: rabbit radius defect, 3 weeks, H&E. Here is the method:
This animal model was approved by the IACUC at the University of Arkansas Medical Sciences with all appropriate measures taken to minimize pain and discomfort. This in vivo model is an adaptation of the work by Smeltzer et al J Orthop Res, 1997 15(3):414-21. Female New Zealand White rabbits weighing 2-3 kg were divided into 5 groups (n=6/group) including the following: no treatment control, a hollow PMMA (Orthoset, MicroPort Memphis, TN) cylinder with amikacin and vancomycin (approximately 15 mg/implant), a vancomycin sprinkle of 10 mg, the Ch-PEG paste, and the ChMPEG paste. Rabbits were anesthetized with 1-2 cc of a xylazine/ketamine mixture intramuscularly for a dose range of […] xylazine and 30-40 mg/kg ketamine. Rabbits were maintained on isoflurane administered by nose cone to produce surgical anesthesia and monitored by a veterinary technician. The right forelimb of each rabbit was shaved and prepped using a betadine scrub and rinsed with 70% ethanol. An incision was made on the anterior surface of the right forelimb through the epidermis, musculature, and fascia until the radius was exposed. A 1 cm mid-radial segment was excised from the right radial bone using a miniature saw blade (Exakt, Oklahoma City, OK). […]

Structures are written as SMILES.

`CN[C@H](CC(C)C)C(=O)N[C@H]1C(=O)N[C@@H](CC(N)=O)C(=O)N[C@H]2C(=O)N[C@H]3C(=O)N[C@H](C(=O)N[C@H](C(=O)O)c4cc(O)cc(O)c4-c4cc3ccc4O)[C@H](O)c3ccc(c(Cl)c3)Oc3cc2cc(c3O[C@@H]2O[C@H](CO)[C@@H](O)[C@H](O)[C@H]2O[C@H]2C[C@](C)(N)[C@H](O)[C@H](C)O2)Oc2ccc(cc2Cl)[C@H]1O` [vancomycin powder, vancomycin]: the “inflammation in histological sections of bone in the defect” value is given as “areas of high inflammatory cell presence” and the “tissue growth / fill in the defect (histology)” value is on record as “tissue fill within the defect”.
